How the values were obtained:
Experiment in all cases: Agarose dilution MIC assay
Assay type in all cases: cell-based
C. neoformans = C. neoformans strain CNE001
Description: (§1) The agarose dilution assay measures antimicrobial activity of peptides and peptide analogues. The activity is expressed as the minimum inhibitory concentration (MIC) in μg/ml of the peptide.
(§2) In order to mimic in vivo conditions, calcium and magnesium supplemented Mueller Hinton broth is used in combination with a low EEO agarose as the bacterial growth medium. Agarose, rather than agar, is used as the charged groups in agar prevent peptide diffusion through the medium. The medium is autoclaved, then cooled to 50-55° C. in a water bath before aseptic addition of a peptide solution. The same volume of different concentrations of peptide solution is added to the cooled, molten agarose that is then poured into a petri plate to a depth of 3-4 mm and allowed to solidify.
(§3) The bacterial inoculum is adjusted to a 0.5 McFarland turbidity standard (PML Microbiological) and then diluted 1:10 before application on to the agarose plate. The final inoculum applied to the agarose is approximately 10^4 CFU in a 5-8 mm diameter spot. The agarose plates are incubated at 35-37° C. for 16 to 20 hours.

S. pneumoniae = S. pneumoniae strain SPN002
Description: as §1, §2, §3

E. faecalis = E. faecalis strain EFS001
Description: as §1, §2, §3

S. epidermidis = S. epidermidis strain SEP010; agarose dilution
Description: as §1, §2, §3

C. jeikeium = C. jeikeium strain CJK005
Description: as §1, §2, §3

S. aureus = S. aureus strain SAU014; agarose dilution
Description: as §1, §2, §3

K. pneumoniae = conditions: K. pnenmoniae strain KPN001
Description: as §1, §2, §3

A. calcoaceticus = A. calcoaceticus strain ACA002
Description: as §1, §2, §3

E. cloacae = E. cloacae strain ECL007
Description: as §1, §2, §3

S. maltophilia = S. maltophilia strain SMA002
Description: as §1, §2, §3

S. pyogenes = S. pyogenes strain SPY001
Description: as §1, §2, §3

C. albicans = C. albicans strain CAL002; agarose dilution
Description: as §1, §2, §3

P. aeruginosa = P. aeruginosa strain PAE004; agarose dilution
Description: as §1, §2, §3

S. mitis = S. mitis strain SMT014
Description: as §1, §2, §3

S. marcescens = S. marcescens strain SMS003
Description: as §1, §2, §3

E. coli = E. coli strain ECO005
Description: as §1, §2, §3

Substance | Minimum Inhibitory Concentration (C. neoformans) [µg/mL] | Minimum Inhibitory Concentration (S. pneumoniae) [µg/mL] | Minimum Inhibitory Concentration (E. faecalis) [µg/mL] | Minimum Inhibitory Concentration (S. epidermidis) [µg/mL] | Minimum Inhibitory Concentration (C. jeikeium) [µg/mL] | Minimum Inhibitory Concentration (S. aureus) [µg/mL] | Minimum Inhibitory Concentration (K. pneumoniae) [µg/mL] | Minimum Inhibitory Concentration (A. calcoaceticus) [µg/mL] | Minimum Inhibitory Concentration (E. cloacae) [µg/mL] | Minimum Inhibitory Concentration (S. maltophilia) [µg/mL] | Minimum Inhibitory Concentration (S. pyogenes) [µg/mL] | Minimum Inhibitory Concentration (C. albicans) [µg/mL] | Minimum Inhibitory Concentration (P. aeruginosa) [µg/mL] | Minimum Inhibitory Concentration (S. mitis) [µg/mL] | Minimum Inhibitory Concentration (S. marcescens) [µg/mL] | Minimum Inhibitory Concentration (E. coli) [µg/mL]
R L W W V V W W R R [Peptide 11F56CN] | 8 | 2 | 2 | 1 | 0.5 | 1 | 2 | 1 | 32 | 2 | 1 | 16 | 32 | 1 | >128 | 2
i L K K W P W W P W R R k [Peptide 11E3CN] | 4 | 4 | 64 | 4 | 0.5 | 8 | 32 | 4 | >128 | 64 | 1 | 32 | 64 | 2 | >128 | 8
r L W V W W V W R R [Peptide 11F67CN] | 8 | 2 | 4 | 1 | 0.5 | 2 | 2 | 2 | 32 | 2 | 1 | 32 | 16 | 1 | >128 | 2

— patent publication US6835536B2, “Antimicrobial cationic peptides and formulations thereof” (Micrologix Biotech Inc., priority 2001, dated 2004)
